Data reported in patent US20060270694A1, “JAK kinase inhibitors and their uses” (Rigel Pharmaceuticals, Inc., priority 2005, published 2006).

System: JAK kinase (JAK1 and JAK3)
Assay: IL-4 activation assay: CD23 upregulation in IL-4 stimulated Ramos B-cells, FACS
Format: cell-based, human
Conditions: TABLE 2; IC50 CHMC degranulation (tryptase) / IC50 IL-4 Ramos CD23
Experimental: The selectivity of the compounds illustrated in TABLES 1 and 2 for JAK kinases as compared to Syk kinase was confirmed in cellular assays designed to test for JAK and Syk inhibition. Briefly, JAK inhibition was tested in human Ramos B-cells activated with IL-4. Twenty to 24 hours post stimulation, the cells are stained for upregulation of CD23 and analyzed by FACS. Stimulation of the B-cells with IL-4 leads to the activation of the JAK/STAT pathway through phosphorylation of the JAK kinase JAK1 and JAK3, which in turn phosphorylate and activate transcription of factor […].
For the assay, human Ramos B-cells (ATCC, Catalog No. CRL-1596) are cultured in RPMI 1640 medium (Cellgro, Catalog No. 10-040-CM) containing 10% fetal bovine serum (JRH, Catalog No. 12106-500M) according to the propagation protocol supplied with the cells, and maintained at a density of approximately 3.5×10^5 cells/ml. The day before the assay, the cells are diluted to 3.5×10^5 cells/ml to insure they are in the logorithmic growth phase. The cells are spun down, and suspended in RPMI 1640 medium containing 5% fetal bovine serum to a density of 3.5×10^4 cells/ml and aliquots dispensed into a 96-well tissue culture plate. Cells are incubated with test compound (dissolved in DMSO) or DMSO (control) for 1 hr at 37° C. and then stimulated with IL-4 (Pepotech, Catalog No. 200-04) for 20-24 hours (final concentration is 50 Units/ml). Cells are then spun down, stained with anti-CD23-PE antibody (BD Pharmigen, Catalog No.555711) and analyzed by FACS.

| Structure (SMILES) | IC50 Ratio (Syk/JAK) |
| --- | --- |
| CCN(CC)CNC(=O)c1ccc(Nc2ncc(F)c(Nc3ccc4c(c3)C(=O)NC(=O)C4(C)C)n2)cc1 [Cmpd 65] | 18 |
| CNC(=O)CNC(=O)c1ccc(Nc2ncc(F)c(Nc3ccc(OC)c(Cl)c3)n2)cc1 [Cmpd 66] | 17 |
| COC(=O)CNC(=O)c1ccc(Nc2ncc(F)c(Nc3ccc(OCc4nc(C)no4)cc3)n2)cc1 [Cmpd 67] | 17 |
| CNC(=O)COc1cccc(Nc2ncc(F)c(Nc3ccc(OC)c(C(=O)OC)c3)n2)c1 [Cmpd 68] | 16 |
| Cc1cc(Nc2ncc(F)c(NC3C=C[C@@H](C(N)=O)C3)n2)ccc1N1CCN(C)CC1 (stereo partly shown) [Cmpd 69] | 16 |
| CNC(=O)CNC(=O)c1ccc(Nc2ncc(F)c(Nc3ccc4c(c3)NC(=O)C(C)(C)O4)n2)cc1 [Cmpd 70] | 15 |
| CNC(=O)COc1cccc(Nc2ncc(F)c(Nc3cccc(OC(=O)N(C(=O)NC(C)C)C(C)C)c3)n2)c1 [Cmpd 71] | 15 |
| CN1CCN(c2ccc(Nc3ncc(F)c(NC4CCCC4)n3)cc2Cl)CC1 [Cmpd 72] | 14 |
| COC(=O)CNC(=O)c1ccc(Nc2ncc(F)c(Nc3ccc(C(N)=O)cc3)n2)cc1 [Cmpd 73] | 14 |
| O=C(Nc1ccc(Nc2ncc(F)c(NC3CCCCC3)n2)cc1)c1ccccc1 [Cmpd 74] | 14 |
| COc1ccc(Nc2ncc(F)c(Nc3ccc4c(c3)NC(=O)CO4)n2)cc1Cl [Cmpd 75] | 14 |
| COc1cc(Nc2nc(Nc3ccc(CN)cc3)ncc2F)cc(OC)c1 [Cmpd 76] | 14 |
| Cc1cc(Nc2ncc(F)c(NC3CCCC3)n2)cnc1N1CCN(C)CC1 [Cmpd 77] | 13 |
| Cc1noc(COc2ccc(Nc3nc(Nc4ccc(C(N)=O)c(O)c4)ncc3F)cc2)n1 [Cmpd 78] | 13 |
| O=C1Nc2cc(Nc3nc(Nc4ccc(-c5cnco5)cc4)ncc3F)ccc2OC1CCO (stereo not shown) [Cmpd 79] | 12 |
| COc1ccc(Nc2nc(Nc3cc(Cl)c(O)c(Cl)c3)ncc2F)cc1Cl [Cmpd 80] | 11 |
| CNC(=N)COc1ccc(Nc2nc(Nc3ccc4c(c3)OCCO4)ncc2F)cc1 [Cmpd 81] | 11 |
| Cc1noc(COc2ccc(Nc3nc(Nc4ccc(C(N)=O)cc4)ncc3F)cc2)n1 [Cmpd 82] | 10 |
| COc1ccc(Nc2nc(Nc3ccc(C(N)=O)c(Cl)c3)ncc2F)cc1Cl [Cmpd 83] | 10 |
| CNC(=O)Cn1ncc2ccc(Nc3nc(Nc4ccc5c(c4)OCCO5)ncc3F)cc21 [Cmpd 84] | 10 |
| CNS(=O)(=O)c1ccc(Nc2ncc(F)c(Nc3ccc(OC)c(OC)c3)n2)cc1OC [Cmpd 85] | 10 |
| CNC(=O)COc1cccc(Nc2ncc(F)c(Nc3ccc4c(c3)C(N(C)C(=O)OC(C)(C)C)CCO4)n2)c1 (stereo not shown) [Cmpd 86] | 10 |
| CN1CCN(c2ccc(Nc3ncc(F)c(NC4CCCC4C(N)=O)n3)cc2Cl)CC1 (stereo not shown) [Cmpd 87] | 10 |
| COC(=O)CNC(=O)c1ccc(Nc2nc(Nc3cccc(O)c3)ncc2F)cc1 [Cmpd 88] | 10 |
| Cc1cc(Nc2nc(Nc3ccc(C(N)=O)c(Cl)c3)ncc2F)ccc1N1CCN(C)CC1 [Cmpd 89] | 10 |
